Structures are written as SMILES. Structures can show the parent of a compound that is named as a salt.

Test [1] concerns the target T1, pseudo-kinase domain (JH2, amino-acids 536-812) of human V617F mutant JAK2 (Homo sapiens, UniProt O60674, F794H/V617F/W659A/W777A).
T1 construct: pseudo-kinase domain (JH2, amino-acids 536-812 with 3 surface mutations W659A, W777A, F794H); purchased BPS Bioscience 79498; host or cells: baculovirus expression system
In words: JAK2 LanthaScreen JH2-V617F Binding Assay. Conditions: 1 hour at 25° C. The method, then: Example C. JAK2 LanthaScreen JH2-V617F Binding Assay
(§1) JAK2 JH2-V617F binding assay utilizes pseudo-kinase domain (JH2, amino-acids 536-812 with 3 surface mutations W659A, W777A, F794H) of human V617F mutant JAK2 expressed as C-terminal His-Avi-tagged, biotinylated protein in a baculovirus expression system (BPS Bioscience, Catalog #79498). The assay was conducted in black 384-well polystyrene plates in a final reaction volume of 20 μL. JAK2 JH2-V617F (0.26 nM) was incubated with compounds (100 nL serially diluted in DMSO) in the presence of 50 nM Fluorescent JAK2-JH2 Tracer (MedChem Express Catalog #HY-102055) and 0.25 nM Streptavidin-Tb cryptate (Cisbio Part #610SATLB) in assay buffer (50 mM Tris, pH=7.5, 10 mM MgCl2, 0.01% Brij-35, 0.1% BSA, 1 mM EGTA, 5% Glycerol and 5 mM DTT). Non-specific binding was accessed in the presence of 2 mM ATP. After incubation for 1 hour at 25° C., LanthaScreen signals were read on a PHERAstar FS plate reader (BMG LABTECH). Data was analyzed with IDBS XLfit and GraphPad Prism 5.0 software using a four parameter dose response curve to determine IC50 for each compound.

The target in test [2] is T2, pseudo-kinase domain (JH2, amino-acids 536-812) of human Wild Type JAK2 (Homo sapiens, UniProt O60674, F794H/W659A/W777A).
T2 construct: pseudo-kinase domain (JH2, amino-acids 536-812 with 3 surface mutations W659A, W777A, F794H); purchased BPS Bioscience 79463; host or cells: baculovirus expression system
Put plainly: JAK2 LanthaScreen JH2-WT Binding Assay. Conditions: 1 hour at 25° C. Here is the method:
Example B. JAK2 LanthaScreen JH2-WT Binding Assay
as §1, with “JH2-WT” for “JH2-V617F”, “Wild Type” for “V617F mutant”, “#79463).” for “#79498).”, “JH2-WT (0.145” for “JH2-V617F (0.26”

Test [3] concerns the target T3, catalytic domain (JH1, amino acids 808-1132) of human JAK2 (Homo sapiens, UniProt O60674).
T3 construct: catalytic domain (JH1, amino acids 808-1132) of human JAK2; His (N); purchased BPS Bioscience 40450; host or cells: baculovirus expression system
In words: JAK2 HTRF Enzyme Activity Assay. Type of test: biochemical. Conditions: ATP 30 μM, read-out: ENZ 30UMATP. Here is the method: Example D. JAK2 HTRF Enzyme Activity Assay
JAK2 enzyme activity assays utilize catalytic domain (JH1, amino acids 808-1132) of human JAK2 expressed as N-terminal His-tagged protein in a baculovirus expression system (BPS Bioscience, Catalog #40450). The assays was conducted in black 384-well polystyrene plates in a final reaction volume of 20 μL. JAK2 (0.015 nM) was incubated with compounds (100 nL serially diluted in DMSO) in the presence of ATP (30 μM or 1 mM) and 500 nM Biotin-labeled […] (SEQ ID NO.: 1) peptide (BioSource International, custom synthesis) in assay buffer (50 mM Tris, pH=7.5, 10 mM MgCl2, 0.01% Brij-35, 0.1% BSA, 1 mM EGTA, 5% Glycerol and 5 mM DTT) for 60 minutes at 25° C. The reactions were stopped by the addition of 10 μL of detection buffer (50 mM Tris, pH 7.8, 0.5 mg/mL BSA, 150 mM NaCl), supplemented with EDTA, LANCE Eu-W1024 anti-phosphotyrosine (PY20), (PerkinElmer, Catalog #AD0067) and Streptavidin SureLight APC (PerkinElmer Catalog #CR130-100), for a final concentration of 15 mM, 1.5 nM and 75 nM, respectively. HTRF signals were read after 30 minutes incubation at room temperature on a PHERAstar FS plate reader (BMG LABTECH). Data was analyzed with IDBS XLfit and GraphPad Prism 5.0 software using a four parameter dose response curve to determine IC50 for each compound.

For test [4], the target named is T4, catalytic domain (JH1, amino acids 826-1132) of human JAK2 (Homo sapiens, UniProt O60674).
T4 construct: catalytic domain (JH1, amino acids 826-1132) of human JAK2; purchased Carna Biosciences 08-445-20N; host or cells: baculovirus expression system
In words: JAK2 LanthaScreen JH1 Binding Assay. The following applies: 2 hours at 25° C. Here is the method:
Example A. JAK2 LanthaScreen JH1 Binding Assay
JAK2 JH1 binding assay utilizes catalytic domain (JH1, amino acids 826-1132) of human JAK2 expressed as N-terminal FLAG-tagged, biotinylated protein in a baculovirus expression system (Carna Biosciences, Product #08-445-20N). The assay was conducted in black 384-well polystyrene plates in a final reaction volume of 20 μL. JAK2 JH1 (1.5 nM) was incubated with compounds (100 nL serially diluted in DMSO) in the presence of 50 nM Fluorescent JAK2-JH1 Tracer and 0.5 nM Streptavidin-Tb cryptate (Cisbio Part #610SATLB) in assay buffer (50 mM Tris, pH=7.5, 10 mM MgCl2, 0.01% Brij-35, 0.1% BSA, 1 mM EGTA, 5% Glycerol and 5 mM DTT). Non-specific binding was accessed in the presence of 2 mM ATP. After incubation for 2 hours at 25° C., LanthaScreen signals were read on a PHERAstar FS plate reader (BMG LABTECH). Data was analyzed with IDBS XLfit and GraphPad Prism 5.0 software using a four parameter dose response curve to determine IC50 for each compound.

T2 sequence (O60674 536-812 W659A/W777A/F794H): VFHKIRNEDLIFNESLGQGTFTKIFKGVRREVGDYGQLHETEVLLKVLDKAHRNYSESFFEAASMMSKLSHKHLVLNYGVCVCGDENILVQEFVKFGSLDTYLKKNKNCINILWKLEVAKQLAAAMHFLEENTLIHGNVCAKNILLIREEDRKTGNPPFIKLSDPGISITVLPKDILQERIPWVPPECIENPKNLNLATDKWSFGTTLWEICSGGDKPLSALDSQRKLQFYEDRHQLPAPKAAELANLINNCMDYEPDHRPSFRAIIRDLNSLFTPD
T1 sequence (O60674 536-812 V617F/W659A/W777A/F794H): as the sequence (O60674 536-812 W659A/W777A/F794H) above, with V82F counted along it
T3 sequence (O60674 808-1132): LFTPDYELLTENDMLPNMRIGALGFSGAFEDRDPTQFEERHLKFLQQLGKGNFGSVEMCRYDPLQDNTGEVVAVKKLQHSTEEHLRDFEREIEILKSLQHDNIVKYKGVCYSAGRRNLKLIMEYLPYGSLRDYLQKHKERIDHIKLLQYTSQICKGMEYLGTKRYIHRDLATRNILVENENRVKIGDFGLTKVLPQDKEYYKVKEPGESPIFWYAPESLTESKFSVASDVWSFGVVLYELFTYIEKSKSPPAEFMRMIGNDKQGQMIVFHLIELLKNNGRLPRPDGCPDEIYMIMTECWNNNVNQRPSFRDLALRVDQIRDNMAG
T4 sequence (O60674 826-1132): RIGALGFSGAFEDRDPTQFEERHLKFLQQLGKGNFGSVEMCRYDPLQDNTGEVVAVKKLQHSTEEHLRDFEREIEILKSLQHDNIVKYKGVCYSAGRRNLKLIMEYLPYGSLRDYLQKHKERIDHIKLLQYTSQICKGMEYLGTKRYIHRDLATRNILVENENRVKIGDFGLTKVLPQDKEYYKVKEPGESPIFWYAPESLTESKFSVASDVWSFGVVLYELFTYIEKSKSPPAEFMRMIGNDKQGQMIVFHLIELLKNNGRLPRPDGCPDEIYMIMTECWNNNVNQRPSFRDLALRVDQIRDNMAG

`CN1C(=O)C2(CCN(CC3(CC#N)CC3)C2)c2c1cnc1[nH]c(-c3cnn(Cc4ccc(C#N)cc4)c3)c(-c3ccc4c(cnn4C)c3)c21` (racemic) [Example 69, 4-((4-(1′-((1-(Cyanomethyl)cyclopropyl)methyl)-6-methyl-1-(1-methyl-1H-indazol-5-yl)-7-oxo-6,7-dihydro-3H-spiro[dipyrrolo[2,3-b:3′,2′-d]pyridine-8,3′-pyrrolidin]-2-yl)-1H-pyrazol-1-yl)methyl)benzonitrile, trifluoroacetate salt]: the IC50 in test [1] is at most 100 nM; in test [2], at most 100 nM; in test [3], 500 to 1250 nM; in test [4], 500 to 1250 nM.
`CN1C(=O)C2(CCN(CC3(CC#N)CC4(CCC4)C3)C2)c2c1cnc1[nH]c(-c3cnn(C)c3)c(-c3ccc4c(cnn4C)c3)c21` (racemic) [Example 70, 2-(2-((6-Methyl-1-(1-methyl-1H-indazol-5-yl)-2-(1-methyl-1H-pyrazol-4-yl)-7-oxo-6,7-dihydro-3H-spiro[dipyrrolo[2,3-b:3′,2′-d]pyridine-8,3′-pyrrolidin]-1′-yl)methyl)spiro[3.3]heptan-2-yl)acetonitrile]: the IC50 in test [1] was at most 100 nM; in test [2] it was at most 100 nM; in test [3], over 2500 nM; in test [4], over 2500 nM.
Regarding `CN1C(=O)C2(CCN(S(=O)(=O)C3(CC#N)CC3)C2)c2c1cnc1[nH]c(-c3cnn(C)c3)c(-c3ccc4c(cnn4C)c3)c21` (racemic) [Example 71, 2-(1-((6-Methyl-1-(1-methyl-1H-indazol-5-yl)-2-(1-methyl-1H-pyrazol-4-yl)-7-oxo-6,7-dihydro-3H-spiro[dipyrrolo[2,3-b:3′,2′-d]pyridine-8,3′-pyrrolidin]-1′-yl)sulfonyl)cyclopropyl)acetonitrile, trifluoroacetate salt], the IC50 in test [1] was at most 100 nM; in test [2] it was at most 100 nM; in test [3], 1250 to 2500 nM; in test [4], 1250 to 2500 nM.
For the compound `CON1C(=O)C2(CCN(CC3(CC#N)CC3)C2)c2c1cnc1[nH]c(-c3cnn(C)c3)c(-c3ccc4c(cnn4C)c3)c21` (racemic) [Example 72, 2-(1-((6-Methoxy-1-(1-methyl-1H-indazol-5-yl)-2-(1-methyl-1H-pyrazol-4-yl)-7-oxo-6,7-dihydro-3H-spiro[dipyrrolo[2,3-b:3′,2′-d]pyridine-8,3′-pyrrolidin]-1′-yl)methyl)cyclopropyl)acetonitrile, trifluoroacetate salt], the IC50 in test [1] was 1250 to 2500 nM; in test [2], 500 to 1250 nM; in test [3] it was 500 to 1250 nM; in test [4], over 2500 nM.
Turning to `CN1C(=O)C2(CCN(C3(C)CCS(=O)(=O)C3)CC2)c2c1cnc1[nH]c(-c3cnn(C)c3)c(-c3ccc4c(cnn4C)c3)c21` (racemic) [Example 78, 6-Methyl-1′-(3-methyl-1,1-dioxidotetrahydrothiophen-3-yl)-1-(1-methyl-1H-indazol-5-yl)-2-(1-methyl-1H-pyrazol-4-yl)-3,6-dihydro-7H-spiro[dipyrrolo[2,3-b:3′-2′-d]pyridine-8,4′-piperidin]-7-one], the IC50 is at most 100 nM in test [1], at most 100 nM in test [2], 500 to 1250 nM in test [3] and 500 to 1250 nM in test [4].
Consider `COC(=O)NC1CC(CC#N)(N2CCC3(CC2)C(=O)N(C)c2cnc4[nH]c(-c5cnn(C)c5)c(-c5ccccc5)c4c23)C1` (single isomer, unassigned) [Example 27, Methyl (3-(cyanomethyl)-3-(6-methyl-2-(1-methyl-1H-pyrazol-4-yl)-7-oxo-1-phenyl-6,7-dihydro-3H-spiro[dipyrrolo[2,3-b:3′,2′-d]pyridine-8,4′-piperidin]-1′-yl)cyclobutyl)carbamate], for which the IC50 in test [1] is at most 100 nM; in test [2] it was at most 100 nM; in test [3], 100 to 500 nM; in test [4], 100 to 500 nM.
With `CCS(=O)(=O)N1CCC[C@]2(CC1)C(=O)N(C)c1cnc3[nH]c(-c4cnn(C(C)C)c4)c(-c4ccc5c(cnn5C)c4)c3c12` (single isomer, unassigned) [Example 53a], the IC50 was 500 to 1250 nM in test [1], 100 to 500 nM in test [2], over 2500 nM in test [3] and over 2500 nM in test [4].
`CCS(=O)(=O)N1CCC[C@@]2(CC1)C(=O)N(C)c1cnc3[nH]c(-c4cnn(C(C)C)c4)c(-c4ccc5c(cnn5C)c4)c3c12` (single isomer, unassigned) [Example 53b]: the IC50 was at most 100 nM in test [1], at most 100 nM in test [2], 100 to 500 nM in test [3] and 100 to 500 nM in test [4].
Take `CN1C(=O)[C@]2(CCN(CC3(CC#N)CC3)C2)c2c1cnc1[nH]c(-c3cnn(C)c3)c(-c3ccc4c(cnn4C)c3)c21` (single isomer, unassigned) [Example 65]: the IC50 was at most 100 nM in test [1], at most 100 nM in test [2], over 2500 nM in test [3] and over 2500 nM in test [4].
Turning to `CN1C(=O)[C@@]2(CCN(CC3(CC#N)CC3)C2)c2c1cnc1[nH]c(-c3cnn(C)c3)c(-c3ccc4c(cnn4C)c3)c21` (single isomer, unassigned) [Example 66], the IC50 was at most 100 nM in test [1], at most 100 nM in test [2], 500 to 1250 nM in test [3] and 500 to 1250 nM in test [4].

(Values after US11958861B2, “Spirocyclic lactams as JAK2 V617F inhibitors” (Incyte Corporation, priority 2021, dated 2024).)
